Positions of bridges follow the written chain, without caps; N, C: chain ends. Non-standard residues stand in square brackets, D forms with d. Residues, ends and D or L forms follow the SMILES beside them.

In the assay the target is T1, Platelet rich plasma, PRP (Canis lupus familiaris, UniProt A0A8I3N5G5+A0A8I3PMU9).
T1 sequence (A0A8I3N5G5 1-1047): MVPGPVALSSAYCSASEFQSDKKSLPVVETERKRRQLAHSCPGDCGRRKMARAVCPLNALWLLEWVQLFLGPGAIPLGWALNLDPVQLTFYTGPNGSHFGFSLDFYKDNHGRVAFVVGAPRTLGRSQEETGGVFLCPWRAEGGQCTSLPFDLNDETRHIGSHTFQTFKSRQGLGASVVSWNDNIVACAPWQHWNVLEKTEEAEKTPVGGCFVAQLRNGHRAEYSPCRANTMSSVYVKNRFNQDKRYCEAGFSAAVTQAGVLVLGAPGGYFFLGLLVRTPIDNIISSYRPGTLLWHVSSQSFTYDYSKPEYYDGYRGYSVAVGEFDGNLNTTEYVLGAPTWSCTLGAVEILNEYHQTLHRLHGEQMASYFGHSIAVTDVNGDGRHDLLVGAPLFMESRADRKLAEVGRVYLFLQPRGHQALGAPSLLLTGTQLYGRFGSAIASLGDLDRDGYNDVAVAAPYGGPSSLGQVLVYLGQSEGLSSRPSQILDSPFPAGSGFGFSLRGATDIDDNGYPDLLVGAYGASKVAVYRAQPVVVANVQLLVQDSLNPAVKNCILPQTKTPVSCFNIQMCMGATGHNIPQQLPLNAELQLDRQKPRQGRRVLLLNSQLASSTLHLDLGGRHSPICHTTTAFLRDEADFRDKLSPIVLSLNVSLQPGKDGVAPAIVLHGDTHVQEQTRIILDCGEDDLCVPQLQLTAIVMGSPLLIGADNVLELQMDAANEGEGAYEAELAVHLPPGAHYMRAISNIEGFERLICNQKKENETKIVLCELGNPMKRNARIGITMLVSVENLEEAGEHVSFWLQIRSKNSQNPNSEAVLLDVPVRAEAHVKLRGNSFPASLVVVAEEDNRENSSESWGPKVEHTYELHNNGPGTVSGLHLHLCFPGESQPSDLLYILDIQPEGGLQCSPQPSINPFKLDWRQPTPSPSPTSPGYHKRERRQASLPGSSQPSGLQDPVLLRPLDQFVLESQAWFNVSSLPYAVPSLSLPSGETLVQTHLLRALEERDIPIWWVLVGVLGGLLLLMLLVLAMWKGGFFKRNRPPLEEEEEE
T1 sequence (A0A8I3PMU9 1-919): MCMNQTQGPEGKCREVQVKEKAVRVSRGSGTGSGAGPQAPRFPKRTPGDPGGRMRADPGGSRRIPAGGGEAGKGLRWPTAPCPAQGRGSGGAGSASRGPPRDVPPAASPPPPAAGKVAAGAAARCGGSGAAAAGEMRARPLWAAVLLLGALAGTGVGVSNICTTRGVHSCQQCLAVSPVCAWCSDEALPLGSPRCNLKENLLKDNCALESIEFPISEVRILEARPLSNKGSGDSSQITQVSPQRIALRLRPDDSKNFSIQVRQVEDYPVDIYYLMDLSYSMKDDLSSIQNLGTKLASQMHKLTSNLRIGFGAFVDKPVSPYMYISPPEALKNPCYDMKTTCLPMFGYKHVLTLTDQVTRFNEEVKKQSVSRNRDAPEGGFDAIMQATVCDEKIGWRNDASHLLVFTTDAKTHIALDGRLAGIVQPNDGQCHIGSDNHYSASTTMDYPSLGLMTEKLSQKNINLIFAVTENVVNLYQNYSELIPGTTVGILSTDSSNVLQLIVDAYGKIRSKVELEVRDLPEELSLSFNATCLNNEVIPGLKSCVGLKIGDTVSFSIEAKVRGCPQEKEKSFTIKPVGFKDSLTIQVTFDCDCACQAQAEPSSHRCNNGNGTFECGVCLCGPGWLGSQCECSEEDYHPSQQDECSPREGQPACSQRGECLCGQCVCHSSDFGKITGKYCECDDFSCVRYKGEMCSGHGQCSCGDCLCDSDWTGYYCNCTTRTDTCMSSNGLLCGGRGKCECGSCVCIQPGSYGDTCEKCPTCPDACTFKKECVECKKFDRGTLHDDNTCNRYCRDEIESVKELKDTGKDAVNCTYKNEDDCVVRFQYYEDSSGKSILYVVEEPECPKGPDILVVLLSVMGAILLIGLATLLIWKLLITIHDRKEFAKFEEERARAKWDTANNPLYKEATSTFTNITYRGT
The experiment in a line: Inhibition of platelet aggregation, PRP/ADP. The conditions noted are these: dog platelet rich plasma, 2 μM ADP, peptide added 3 min. prior to agonist; read-out: Antiaggregatory Activity IC50, μM PRP/ADP. It is filed as cell-based. The protocol: Blood was collected (citrated to prevent coagulation) from, naive, adult mongrel dogs. Platelet rich plasma, PRP, was prepared by centrifugation at 150×g for 10 min. at room temperature. Washed platelets were prepared by centrifuging PRP at 800×g for 10 min. The cell pellet thus obtained was washed twice in Tyrode's buffer (pH 6.5) without Ca^2+ and resuspended in Tyrode's buffer (pH 7.4) containing 1.8 mM Ca^2+ at […]. Peptides were added 3 min. prior to the agonist in all assays of platelet aggregation. Final agonist concentrations were 0.1 unit/ml thrombin and 2 μM ADP (Sigma). Aggregation was monitored in a Chrono-Log Lumi-Aggregometer. Light transmittance 5 min. after addition of the agonist was used to calculate percent aggregation according to the formula % aggregation=[(90-CR).div.(90-10)]×100, where CR is the chart reading, 90 is the baseline, and 10 is the PRP blank reading. IC50 's were determined by plotting [% inhibition of aggregation] vs. [concentration of peptide]. Peptides were assayed at 200 μM and diluted sequentially by a factor of 2 to establish a suitable dose response curve.
For the compound `CC(=O)N[C@H]1CSSC(C)(C)[C@@H](C(N)=O)NC(=O)[C@H](CC(=O)O)NC(=O)CNC(=O)[C@H](CCCCNC(=N)N)NC1=O` [Example 13, N^α -Ac-Cyclo(S,S)Cys-HArg-Gly-Asp-Pen-NH2] (HELM PEPTIDE1{[ac].C.[N=C(N)NCCCC[C@H](N[*:1])C(=O)[*:2]].G.D.[Pen].[am]}$PEPTIDE1,PEPTIDE1,2:R3-6:R3$$$V2.0), the IC50 was determined as 3.85 µM.

As for `CC(=O)N[C@@H](CCCCNC(=N)N)C(=O)NCC(=O)N[C@@H](CC(=O)O)C(=O)N[C@@H](CO)C(N)=O` [Example 36, Ac-HArg-Gly-Asp-Ser-NH2] (HELM PEPTIDE1{[ac].[N=C(N)NCCCC[C@H](N[*:1])C(=O)[*:2]].G.D.S.[am]}$$$$V2.0), the IC50 was 68.2 µM.

Turning to “Gly-MeArg-Gly-Asp-Ser-NH2 (RGDS; N-terminal Gly-Me; C-terminal amide; printed: Arg-Gly-Asp-Ser-) [Example 39]”, the IC50 is 12 µM.

With `CN[C@@H](CCCNC(=N)N)C(=O)NCC(=O)N[C@@H](CC(=O)O)C(=O)N[C@@H](CO)C(N)=O` [Example 37, N^α -MeArg-Gly-Asp-Ser-NH2] (HELM PEPTIDE1{[meR].G.D.S.[am]}$$$$V2.0), the IC50 amounted to 66.3 µM.

`CC(=O)N[C@@H](CCCN=C(N)N)C(=O)NCC(=O)N[C@@H](CC(=O)O)C(=O)N[C@H](C(N)=O)C(C)C` [Example 31, N^α -Ac-Arg-Gly-Asp-Val-NH2] (Ac-RGDV-NH2): the IC50 stood at 55.5 µM.

Turning to “N^α -Ac-Cyclo(S,S)Cys-MeArg-Gly-Asp-Cys-NH2 (Ac-C[MeArg]GDC-NH2; disulfide N-5) [Example 8]”, the IC50 was found to be 0.91 µM.

`CC(=O)N[C@H]1CSSC[C@@H](C(N)=O)NC(=O)[C@H](CO)NC(=O)[C@H](CC(=O)O)NC(=O)CNC(=O)[C@H](CCCNC(=N)N)NC1=O` [Example 3, N^α -Ac-Cyclo(S,S) Cys-Arg-Gly-Asp-Ser-Cys-NH2] (HELM PEPTIDE1{[ac].C.R.G.D.S.C.[am]}$PEPTIDE1,PEPTIDE1,2:R3-7:R3$$$V2.0): the IC50 turned out to be 32.7 µM.

On to `CCNC(=O)[C@H](CO)NC(=O)[C@H](CC(=O)O)NC(=O)CNC(=O)[C@H](CCCN=C(N)N)NC(C)=O` [Example 15, N^α -Ac-Arg-Gly-Asp-Ser-NHEt] (HELM PEPTIDE1{[ac].R.G.D.S.[CCN[*:1]]}$$$$V2.0), for which the IC50 is above 200 µM.

Turning to `CCN=C(NCC)NCCC[C@@H]1NC(=O)[C@@H](NC(C)=O)CSSC(C)(C)[C@@H](C(N)=O)NC(=O)[C@H](CC(=O)O)NC(=O)CNC1=O` [Example 24, N^α -Ac-Cyclo(S,S)Cys-(Et2)Arg-Gly-Asp-Pen-NH2] (HELM PEPTIDE1{[ac].C.[CCN=C(NCC)NCCC[C@H](N[*:1])C(=O)[*:2]].G.D.[Pen].[am]}$PEPTIDE1,PEPTIDE1,2:R3-6:R3$$$V2.0), the IC50 was 81.7 µM.

For `CC(=O)N[C@H]1CSSC(C)(C)[C@@H](C(N)=O)NC(=O)[C@H](CC(=O)O)NC(=O)CNC(=O)[C@H](CCCNC(=N)N)N(C)C1=O` [Example 14, N^α -Ac-Cyclo(S,S)Cys-MeArg-Gly-Asp-Pen-NH2] (HELM PEPTIDE1{[ac].C.[meR].G.D.[Pen].[am]}$PEPTIDE1,PEPTIDE1,2:R3-6:R3$$$V2.0), the IC50 amounted to 0.26 µM.

Turning to `CN(C=O)[C@@H](CCCNC(=N)N)C(=O)NCC(=O)N[C@@H](CC(=O)O)C(=O)N[C@@H](CO)C(N)=O` [Example 38, N^α -Formyl-MeArg-Gly-Asp-Ser-NH2] (HELM PEPTIDE1{[O=C[*:2]].[meR].G.D.S.[am]}$$$$V2.0), the IC50 was found to be 6.9 µM.

On to `CC(=O)N[C@H]1CSSC(C)(C)[C@@H](C(N)=O)NC(=O)[C@H](CC(=O)O)NC(=O)CNC(=O)[C@@H](CCCNC(=N)N)NC1=O` [Example 17, N^α -Ac-Cyclo(S,S)Cys-D-Arg-Gly-Asp-Pen-NH2] (HELM PEPTIDE1{[ac].C.[dR].G.D.[Pen].[am]}$PEPTIDE1,PEPTIDE1,2:R3-6:R3$$$V2.0), for which the IC50 came out at 4.1 µM.

For the compound `CC(=O)N[C@H]1CSSC(C)(C)[C@H](C(N)=O)NC(=O)[C@H](CC(=O)O)NC(=O)CNC(=O)[C@H](CCCNC(=N)N)NC1=O` [Example 11, N^α -Ac-Cyclo(S,S)Cys-Arg-Gly-Asp-D-Pen-NH2] (HELM PEPTIDE1{[ac].C.R.G.D.[CC(C)(S[*:3])[C@@H](N[*:1])C(=O)[*:2]].[am]}$PEPTIDE1,PEPTIDE1,2:R3-6:R3$$$V2.0), the IC50 was 20.3 µM.

`CC(=O)N[C@@H](CCCN=C(N)N)C(=O)NCC(=O)N[C@@H](CC(=O)O)C(=O)NCCc1ccccc1` [Example 34, N^α -Ac-Arg-Gly-Asp-NH-CH -CH2 -C6 H5]: the IC50 worked out at 75.9 µM.

Turning to `CC(=O)N[C@H]1CSSC(C)(C)[C@@H](C(N)=O)NC(=O)[C@H](CO)NC(=O)[C@H](CC(=O)O)NC(=O)CNC(=O)[C@H](CCCNC(=N)N)N(C)C1=O` [Example 5, N^α -Ac-Cyclo(S,S)Cys-MeArg-Gly-Asp-Ser-Pen-NH2] (HELM PEPTIDE1{[ac].C.[meR].G.D.S.[Pen].[am]}$PEPTIDE1,PEPTIDE1,2:R3-7:R3$$$V2.0), the IC50 turned out to be 1.3 µM.

For the compound “Ac-RRGDF-NH2 [Example 33, N^α -Ac-Arg-Arg-Gly-Asp-Phe-NH2]”, the IC50 was determined as 113 µM.

As to `CC(=O)N[C@H]1CSSC(C)(C)[C@@H](C(N)=O)NC(=O)[C@H](CC(=O)O)NC(=O)CNC(=O)[C@H](CCCNC(=N)N)NC1=O` [Example 10, N^α -Ac-Cyclo(S,S)Cys-Arg-Gly-Asp-Pen-NH2] (HELM PEPTIDE1{[ac].C.R.G.D.[Pen].[am]}$PEPTIDE1,PEPTIDE1,2:R3-6:R3$$$V2.0), the IC50 is 4.12 µM.

On to `CCNC(=O)[C@H]1NC(=O)[C@H](CC(=O)O)NC(=O)CNC(=O)[C@H](CCCNC(=N)N)NC(=O)[C@@H](NC(C)=O)CSSC1(C)C` [Example 16, N^α -Ac-Cyclo(S,S)Cys-Arg-Gly-Asp-Pen-NHEt] (HELM PEPTIDE1{[ac].C.R.G.D.[Pen].[CCN[*:1]]}$PEPTIDE1,PEPTIDE1,2:R3-6:R3$$$V2.0), for which the IC50 was determined as 9.5 µM.

As to `CC(=O)N[C@H]1CSSC(C)(C)[C@@H](C(N)=O)NC(=O)[C@H](CC(=O)O)NC(=O)CNC(=O)[C@H](CCCCN)NC1=O` [Example 12, N^α -Ac-Cyclo(S,S)Cys-Lys-Gly-Asp-Pen-NH2] (HELM PEPTIDE1{[ac].C.K.G.D.[Pen].[am]}$PEPTIDE1,PEPTIDE1,2:R3-6:R3$$$V2.0), the IC50 is 55.3 µM.
